This is an account of results in publication PMC5827777, “Synthesis and biological evaluation of RGD and isoDGR peptidomimetic-α-amanitin conjugates for tumor-targeting” (Beilstein Journal of Organic Chemistry, 2018).

SMILES strings stand for the structures.

The target in assay [1] is T1, Recombinant human integrin αVβ3 (Homo sapiens, UniProt P05106+P06756).
T1 construct: purchased R&D Systems, Minneapolis, MN, USA
On the set-up: method as in PMID 22517378, PMID 23424096. Particulars: free ligands, Table 1; mean ± SD of triplicate determinations; read-out: IC50 αVβ3, inhibition of biotinylated vitronectin binding; cited from earlier work.

Assay [2] has as its target αVβ5 receptor. Also noted: method as in PMID 22517378, PMID 23424096. Conditions: free ligands, Table 1; mean ± SD of triplicate determinations; read-out: IC50 αVβ5, inhibition of biotinylated vitronectin binding; cited from earlier work.
Assay [3] concerns αVβ5 receptor. The assay is described as follows: Inhibition of biotinylated vitronectin binding to αVβ5 receptor. Particulars: ratio of IC50 values of Table 1.

T1 sequence (P06756 31-992 limits assumed): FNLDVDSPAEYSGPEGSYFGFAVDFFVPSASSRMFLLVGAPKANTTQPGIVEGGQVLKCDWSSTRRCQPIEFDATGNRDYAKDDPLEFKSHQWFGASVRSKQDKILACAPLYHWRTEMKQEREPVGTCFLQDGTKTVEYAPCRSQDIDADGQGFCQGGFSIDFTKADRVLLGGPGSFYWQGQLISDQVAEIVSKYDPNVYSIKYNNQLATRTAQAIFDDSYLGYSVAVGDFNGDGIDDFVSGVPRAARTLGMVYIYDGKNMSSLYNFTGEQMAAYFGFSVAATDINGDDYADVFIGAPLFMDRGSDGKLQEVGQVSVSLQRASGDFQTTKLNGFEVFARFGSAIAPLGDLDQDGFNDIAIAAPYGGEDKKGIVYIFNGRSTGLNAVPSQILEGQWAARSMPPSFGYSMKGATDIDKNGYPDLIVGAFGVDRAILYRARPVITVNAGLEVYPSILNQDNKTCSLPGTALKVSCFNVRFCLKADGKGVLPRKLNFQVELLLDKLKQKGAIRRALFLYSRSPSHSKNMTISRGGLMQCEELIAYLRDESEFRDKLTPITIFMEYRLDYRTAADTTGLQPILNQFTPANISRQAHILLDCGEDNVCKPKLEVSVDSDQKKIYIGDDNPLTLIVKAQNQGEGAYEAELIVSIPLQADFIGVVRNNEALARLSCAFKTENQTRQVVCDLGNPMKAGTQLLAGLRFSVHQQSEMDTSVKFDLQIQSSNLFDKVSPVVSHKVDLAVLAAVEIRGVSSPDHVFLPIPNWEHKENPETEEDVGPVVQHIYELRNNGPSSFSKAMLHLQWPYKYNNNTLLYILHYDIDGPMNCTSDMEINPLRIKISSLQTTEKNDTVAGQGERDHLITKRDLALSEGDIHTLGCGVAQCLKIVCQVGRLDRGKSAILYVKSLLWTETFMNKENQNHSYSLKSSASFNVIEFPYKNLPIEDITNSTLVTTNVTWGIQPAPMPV
T1 sequence (P05106 27-718 limits assumed): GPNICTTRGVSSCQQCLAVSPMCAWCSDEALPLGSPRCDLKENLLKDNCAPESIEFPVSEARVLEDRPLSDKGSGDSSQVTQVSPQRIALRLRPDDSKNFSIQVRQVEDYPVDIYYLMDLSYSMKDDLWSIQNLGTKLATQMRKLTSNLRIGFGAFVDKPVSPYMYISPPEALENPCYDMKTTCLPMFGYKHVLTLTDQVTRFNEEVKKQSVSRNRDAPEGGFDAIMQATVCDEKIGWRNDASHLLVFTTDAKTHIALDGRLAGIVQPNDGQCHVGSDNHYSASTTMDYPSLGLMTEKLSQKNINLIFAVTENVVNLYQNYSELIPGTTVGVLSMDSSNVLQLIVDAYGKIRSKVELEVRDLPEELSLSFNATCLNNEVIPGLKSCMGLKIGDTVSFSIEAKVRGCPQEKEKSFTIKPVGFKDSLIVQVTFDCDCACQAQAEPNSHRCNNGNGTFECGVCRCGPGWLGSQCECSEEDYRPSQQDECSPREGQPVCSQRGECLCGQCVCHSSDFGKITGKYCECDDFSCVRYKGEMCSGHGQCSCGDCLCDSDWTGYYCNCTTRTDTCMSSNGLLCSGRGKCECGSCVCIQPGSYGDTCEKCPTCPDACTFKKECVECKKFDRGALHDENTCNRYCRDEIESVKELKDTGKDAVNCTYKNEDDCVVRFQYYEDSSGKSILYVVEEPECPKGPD

Regarding `N=C(N)NCCC[C@@H]1NC(=O)CNC(=O)C[C@@H](C(=O)O)NC(=O)C[C@H]2NC(=O)[C@H](CNC1=O)N(Cc1ccccc1)C2=O` [Ligand 3, cyclo[DKP-isoDGR]], the IC50 – broadly, the concentration that inhibits the measured activity by half – was 9.2 ± 1.1 nM in assay [1] and 312 ± 21 nM on αVβ5 receptor [2]. Moreover, the “selectivity for αVβ3 in comparison with integrin αVβ5” value in the assay with αVβ5 receptor [3] is given as 33–34 times.
